In patent US20100179109A1, “RENIN INHIBITORS” (priority 2007, published 2010):

Target: T1, trypsin-activated recombinant human renin (Homo sapiens, UniProt P00797)
T1 sequence (P00797 67-406): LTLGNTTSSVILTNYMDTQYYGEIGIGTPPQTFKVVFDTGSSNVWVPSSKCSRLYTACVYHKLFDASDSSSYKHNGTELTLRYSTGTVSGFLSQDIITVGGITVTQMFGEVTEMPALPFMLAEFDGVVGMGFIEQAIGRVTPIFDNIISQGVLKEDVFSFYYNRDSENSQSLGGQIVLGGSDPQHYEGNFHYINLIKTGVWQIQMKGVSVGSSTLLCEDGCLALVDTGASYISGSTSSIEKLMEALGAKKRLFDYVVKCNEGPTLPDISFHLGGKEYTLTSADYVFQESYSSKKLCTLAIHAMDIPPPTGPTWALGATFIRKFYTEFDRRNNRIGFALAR
Assay: In vitro renin assay, fluorescently labeled peptide, LJL Acquest, results as pIC50 (Example 22)
Assay type: biochemical
Conditions: found not to demonstrate inhibition at concentrations below the stated value
Experimental: The potency of renin inhibitors was measured using an in vitro renin assay. In this assay, renin-catalyzed proteolysis of a fluorescently labeled peptide converts the peptide from a weakly fluorescent to a strongly fluorescent molecule. The following test protocol was used. Substrate solution (5 μl; 2 μM Arg-Glu-Lys(5-Fam)-Ile-His-Pro-Phe-His-Leu-Val-Ile-His-Thr-Lys(5,6 Tamra)-Arg-CONH2 in 50 mM Hepes, 125 mM NaCl, 0.1% CHAPS, pH 7.4) then trypsin-activated recombinant human renin (Scott, Martin J. et. al. Protein Expression and Purification 2007, 52(1), 104-116; 5 μL; 600 pM renin in 50 mM Hepes, 125 mM NaCl, 0.1% CHAPS, pH 7.4) were added sequentially to a black Greiner low volume 384-well plate (cat.#784076) pre-stamped with a 100 nl DMSO solution of compound at the desired concentration. The assay plates were incubated at room temperature for 2 hours with a cover plate then quenched by the addition of a stop solution (2 μL; 5 μM of Bachem C-3195 in 50 mM Hepes, 125 mM NaCl, 0.1% CHAPS, pH 7.4, 10% DMSO). The assay plates were read on an LJL Acquest using a 485 nm excitation filter, a 530 nm emission filter, and a 505 nm dichroic filter. Compounds were initially prepared in neat DMSO at a concentration of 10 mM. For inhibition curves, compounds were diluted using a three fold serial dilution and tested at 11 concentrations (e.g. 50 μM-0.8 nM or 25 μM-0.42 nM or 2.5 μM to […]). Curves were analyzed using ActivityBase and XLfit, and results were expressed as pIC50 values.

SMILES | IC50
CNCc1ccc(C(=O)N2CCOC(C(O)(CCCNC(=O)OC)c3cccc(F)c3-c3cc(C)cc(OC)c3)C2)cc1 (centres unmarked) | ≥ 50 µM
COCCCCC(O)(c1ccccc1Oc1c(C)cccc1C)C1CCCN(C(=O)c2ccc(CN)cc2)C1 (centres unmarked) [1-(1-{[4-(aminomethyl)phenyl]carbonyl}-3-piperidinyl)-1-{2-[(2,6-dimethylphenyl)oxy]phenyl}-5-(methyloxy)-1-pentanol] | ≥ 50 µM
COCCCCC(O)(c1cccc(Cl)c1Cc1ccccc1C)C1CCCN(C(=O)c2ccc(CN)cc2)C1 (centres unmarked) [1-(1-{[4-(aminomethyl)phenyl]carbonyl}-3-piperidinyl)-1-{3-chloro-2-[(2-methylphenyl)methyl]phenyl}-5-(methyloxy)-1-pentanol] | ≥ 50 µM
CNCc1ccc(C(=O)N2CCOC(C(O)(CCCCOC)c3cccc(Cl)c3-c3nc(C(C)C)c4ccccc4n3)C2)cc1 (centres unmarked) [1-{3-chloro-2-[4-(1-methylethyl)-2-quinazolinyl]phenyl}-1-[4-({4-[(methylamino)methyl]phenyl}carbonyl)-2-morpholinyl]-5-(methyloxy)-1-pentanol] | ≥ 50 µM
CNCc1ccc(C(=O)N2CCCC(C(O)(CCCCOC)c3cccc(Cl)c3Cc3cccc(C)c3)C2)cc1 (centres unmarked) [1-{3-chloro-2-[(3-methylphenyl)methyl]phenyl}-1-[1-({4-[(methylamino)methyl]phenyl}carbonyl)-3-piperidinyl]-5-(methyloxy)-1-pentanol] | ≥ 50 µM
CCc1cccc(-c2c(Cl)cccc2C(OCCNC(=O)OC)C2CN(C(=O)c3ccc(CNC)cc3)CCO2)c1 (centres unmarked) [methyl [2-({(6-chloro-3′-ethyl-2-biphenylyl)[4-({4-[(methylamino)methyl]phenyl}carbonyl)-2-morpholinyl]methyl}oxy)ethyl]carbamate] | ≥ 50 µM
COC(=O)NCCCC(O)(c1cccc(F)c1-c1cc(C)cc(OC)c1)C1CN(C(=O)C2CCC(N)C2)CCO1 (centres unmarked) [methyl {4-(4-{[3-aminocyclopentyl]carbonyl}-2-morpholinyl)-4-[6-fluoro-3′-methyl-5′-(methyloxy)-2-biphenylyl]-4-hydroxybutyl}carbamate] | ≥ 50 µM
CNCc1ccc(C(=O)N2CCCC(C(O)(CCCNC(=O)OC)c3cccc(F)c3-c3cccs3)C2)cc1 (centres unmarked) [methyl {4-[3-fluoro-2-(2-thienyl)phenyl]-4-hydroxy-4-[1-({4-[(methylamino)methyl]phenyl}carbonyl)-3-piperidinyl]butyl}carbamate] | ≥ 50 µM
